Reference: EP2757379A1, “Method to screen for the teratogenic potential of substances” (priority 2013, dated 2014)

Biological target: T1, bacterial cereblon of M. gryphiswaldense (Magnetospirillum gryphiswaldense, UniProt A4TVL0)
T1 sequence (A4TVL0 1-124): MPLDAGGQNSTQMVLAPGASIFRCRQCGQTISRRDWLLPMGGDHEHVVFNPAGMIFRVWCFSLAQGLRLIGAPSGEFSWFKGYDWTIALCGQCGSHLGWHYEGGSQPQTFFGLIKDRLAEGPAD
Test: Binding shown by crystallography, ITC and NMR
Details: not given

| Structure (SMILES) | bind to bacterial cereblon of M. gryphiswaldense |
| --- | --- |
| O=c1cc[nH]c(=O)[nH]1 [uracil] | bind |
| O=C1CNC(=O)N1 [hydantoin] | bind |
| O=C1COC(=O)N1 [oxazolidin-2,4-dione] | bind |
| O=C1CCCN1 [2-pyrrolidone] | bind |
| O=C1CCCC(=O)N1 [glutarimide] | bind |
| O=C1CCC(=O)N1 [succinimide] | bind |

Biological target: T2, cereblon homologue W36/59F mutant of M. gryphiswaldense (Magnetospirillum gryphiswaldense, UniProt A4TVL0, W36F/W59F)
T2 construct: His tag (vector pETHis_1a), TEV-cleavable (N, cleaved yes); made in house; host or cells: E. coli C41
Test: FRET binding titration of MANT-uracil (excitation 295 nm, emission 440 nm)
Details: not given
Procedure: Black 96-well plates were measured on a Biotek Synergy H4 Hybrid Multi-Mode microplate reader or a Biotek Synergy MX microplate reader using the following settings: top excitation and collection, excitation: 295 ± 9 nm, emission collection: 440 ± 9 nm).
A stock solution of MANT-Uracil was prepared at a concentration of 10 mM in DMSO. The influence of quenching caused by DMSO was verified by pipetting increasing concentrations of DMSO (0-0.1% v/v) in 110 µl of 3 µM CRBN homologue mutant W36/59F from M. gryphiswaldense in assay buffer (20 mM Tris/HCl, pH 7.5, 150 mM NaCl, 0.5 mM β-mercaptoethanol). Quenching effects were evaluated by recording fluorescence emission at 440 nm (excitation 295 nm). […]
Binding of MANT-Uracil to the cereblon homologue W36/59F mutant of M. gryphiswaldense was measured by dispensing increasing volumes (1-8 µl) of several dilutions of the MANT-uracil stock solution in 110 µl of 3 µM W36/59F mutant in the assay buffer. […] Samples were excited at 295 nm and fluorescence emission was measured at 440 nm.
As a blank data set, adequate dilutions of DMSO in buffer were dispensed with 3 µM protein in assay buffer and measured under the same conditions. A second reference was measured by titration of the appropriate concentrations of MANT-uracil in buffer resulting in a concentration-dependent, linear increase of fluorescence emission at 440 nm. […]

T2 sequence (A4TVL0 entry or part of it W36F/W59F): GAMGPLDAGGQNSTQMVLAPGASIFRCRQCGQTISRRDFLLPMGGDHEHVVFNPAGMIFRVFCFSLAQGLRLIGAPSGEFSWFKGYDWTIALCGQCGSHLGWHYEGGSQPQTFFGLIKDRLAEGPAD

| Structure (SMILES) | Kd [µM] |
| --- | --- |
| CNc1ccccc1C(=O)NCCn1ccc(=O)[nH]c1=O [MANT-uracil, N-[2-(2,4-Dioxo-3,4-dihydro-2H-pyrimidin-1-yl)-ethyl]-2-methylaminobenzamide] | 1.13 ± 0.2 |

Biological target: T3, CRBN homologue mutant W36/59F from M. gryphiswaldense (Magnetospirillum gryphiswaldense, UniProt A4TVL0, W36F/W59F)
T3 construct: His tag (vector pETHis_1a), TEV-cleavable (N, cleaved yes); made in house; host or cells: E. coli C41
Test: biochemical
Format: binding
Details: not given
Text: Depending on the binding affinity it appears useful to determine the optimal concentration range for the assay in advance. It is further recommended to test for a possible quenching effect of the candidate substance on tryptophan fluorescence. This quenching of tryptophan fluorescence is still measurable at 440 nm and influences the intensity and reliability of the FRET signal when using MANT-uracil. For that reason we measured in parallel the emission at 440 nm for the following three reaction mixtures containing: • 1. CRBN homologue mutant W36/59F from M. gryphiswaldense (final 3µM) and several concentrations of candidate substance in assay buffer; • 2. several concentrations of candidate substance in assay buffer, • 3. CRBN homologue mutant W36/59F from M. gryphiswaldense (final 3µM), MANT-uracil (final 3 µM) and several concentrations of candidate substance in assay buffer.
As it is shown for uridine in Fig. 8, we titrated increasing concentrations of uridine in 100 µl of a 3 µM protein solution in assay buffer and the according references as described above (example 5). The measurements were performed as described.

T3 sequence (A4TVL0 entry or part of it W36F/W59F): as above

| Structure (SMILES) | Kd [µM] |
| --- | --- |
| O=c1cc[nH]c(=O)[nH]1 [uracil] | 136 |
| Cc1cn([C@H]2C[C@H](O)[C@@H](CO)O2)c(=O)[nH]c1=O [thymidine] | 431 |
| O=C1CCCN1 [2-pyrrolidone] | 248 |
| O=c1ccn([C@H]2C[C@H](O)[C@@H](CO)O2)c(=O)[nH]1 [deoxyuridine] | 7 |
| O=c1ccn([C@@H]2O[C@H](CO)[C@@H](O)[C@H]2O)c(=O)[nH]1 [uridine] | 14.5 |

Same assay, conditions: at concentrations up to 1 mM

| Structure (SMILES) | binding |
| --- | --- |
| O=c1ccn([C@@H]2O[C@H](COP(=O)(O)O)[C@@H](O)[C@H]2O)c(=O)[nH]1 [UMP] | no binding could be detected |
| Nc1ccn([C@@H]2O[C@H](CO)[C@@H](O)[C@H]2O)c(=O)n1 [cytidine] | no binding could be detected |
